Reference: patent US8445510B2, “Fused bicyclic kinase inhibitors” (OSI Pharmaceuticals, LLC, priority 2011, dated 2013)

What was measured:
RON = target: T1, RON (Homo sapiens, UniProt Q04912); test: sfRON cell mechanistic assay (HeLa), phosphorylated RON ELISA; format: cell-based; conditions: HeLa cells transfected with sfRON; inhibition of phosphorylated RON; four hours incubation; at least duplicate experiments; read-out: sfRON mech IC50
T1 sequence (Q04912 913-1400): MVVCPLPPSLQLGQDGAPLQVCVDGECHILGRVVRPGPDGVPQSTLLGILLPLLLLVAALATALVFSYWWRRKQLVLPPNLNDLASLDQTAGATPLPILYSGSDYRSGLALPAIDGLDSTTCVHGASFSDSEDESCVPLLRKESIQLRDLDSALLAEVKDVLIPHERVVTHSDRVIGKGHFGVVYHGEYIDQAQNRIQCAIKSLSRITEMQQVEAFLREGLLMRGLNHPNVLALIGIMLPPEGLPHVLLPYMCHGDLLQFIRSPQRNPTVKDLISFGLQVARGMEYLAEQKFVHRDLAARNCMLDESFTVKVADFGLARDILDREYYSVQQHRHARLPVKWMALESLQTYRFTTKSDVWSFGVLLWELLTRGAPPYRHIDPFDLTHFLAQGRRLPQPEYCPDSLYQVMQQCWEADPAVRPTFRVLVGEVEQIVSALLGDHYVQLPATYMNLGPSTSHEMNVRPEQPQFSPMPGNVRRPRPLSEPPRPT
Outline: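 HeLa cells transiently transfected with sfRON plasmid, then exposed 4 h at 37 °C to a 6-point compound series (typically 10 μM to 3 nM, 0.5% DMSO). Phospho-RON (pY1238/1239) in lysates measured by sandwich ELISA with luminescence. IC50 from 4-parameter fit of percent-of-DMSO-control data, at least duplicate runs.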

Karpas-299 cells = test: Karpas-299 cell proliferation assay (CellTiter-Glo); format: cell-based; conditions: Homo sapiens, 72 h; Karpas-299 cell line (NPM-ALK); 3 days incubation; at least duplicate experiments; read-out: Prolif. IC50

SMILES | IC50 (RON) [nM] | IC50 (Karpas-299 cells) [nM]
COc1ccc(F)c(Cl)c1[C@@H](C)c1c[nH]c2ncc(-c3cn(C)nc3C(N)=O)cc12 [Example 39, 4-{3-[(1S)-1-(2-Chloro-3-fluoro-6-methoxyphenyl)ethyl]-1H-pyrrolo[2,3-b]pyridin-5-yl}-1-methyl-1H-pyrazole-3-carboxamide] | > 1000 | 200 to 1000
COc1ccc(F)c(Cl)c1[C@@H](C)c1c[nH]c2ncc(-c3c(C)nn(C)c3C(N)=O)cc12 [Example 41, 4-{3-[(1S)-1-(2-Chloro-3-fluoro-6-methoxyphenyl)ethyl]-1H-pyrrolo[2,3-b]pyridin-5-yl}-1,3-dimethyl-1H-pyrazole-5-carboxamide] | > 1000 | > 1000
COc1ccc(F)c(Cl)c1[C@@H](C)c1c[nH]c2ncc(-c3cn(C)nc3CO)cc12 [Example 42, (4-{3-[(1S)-1-(2-Chloro-3-fluoro-6-methoxyphenyl)ethyl]-1H-pyrrolo[2,3-b]pyridin-5-yl}-1-methyl-1H-pyrazol-3-yl)methanol] | > 1000 | 50 to 200
COc1ccc(F)c(Cl)c1[C@@H](C)c1c[nH]c2ncc(-c3cnn(C)c3C(N)=O)cc12 [Example 43, 4-{3-[(1S)-1-(2-Chloro-3-fluoro-6-methoxyphenyl)ethyl]-1H-pyrrolo[2,3-b]pyridin-5-yl}-1-methyl-1H-pyrazole-5-carboxamide] | > 1000 | > 1000
COc1ccc(F)c(Cl)c1[C@@H](C)c1c[nH]c2ncc(-c3cnn(C)c3CO)cc12 [Example 44, (4-{3-[(1S)-1-(2-Chloro-3-fluoro-6-methoxyphenyl)ethyl]-1H-pyrrolo[2,3-b]pyridin-5-yl}-1-methyl-1H-pyrazol-5-yl)methanol] | > 1000 | 50 to 200
COc1ccc(F)c(Cl)c1[C@@H](C)c1c[nH]c2ncc(-c3c(C)nn(C)c3CO)cc12 [Example 45, (4-{3-[(1S)-1-(2-Chloro-3-fluoro-6-methoxyphenyl)ethyl]-1H-pyrrolo[2,3-b]pyridin-5-yl}-1,3-dimethyl-1H-pyrazol-5-yl)methanol] | > 1000 | 50 to 200
COc1ccc(F)c(Cl)c1[C@@H](C)c1c[nH]c2ncc(-c3cn(C)nc3C#N)cc12 [Example 46, 4-{3-[(1S)-1-(2-Chloro-3-fluoro-6-methoxyphenyl)ethyl]-1H-pyrrolo[2,3-b]pyridin-5-yl}-1-methyl-1H-pyrazole-3-carbonitrile] | > 1000 | 200 to 1000
CCc1nn([C@H]2CC[C@H](O)CC2)cc1-c1cnc2[nH]cc([C@H](C)c3c(OC)ccc(F)c3Cl)c2c1 [Example 47, trans-4-(4-{3-[(1S)-1-(2-Chloro-3-fluoro-6-methoxyphenyl)ethyl]-1H-pyrrolo[2,3-b]pyridin-5-yl}-3-ethyl-1H-pyrazol-1-yl)cyclohexanol] | 200 to 1000 | 50 to 200
CCc1c(-c2cnc3[nH]cc([C@H](C)c4c(OC)ccc(F)c4Cl)c3c2)cnn1[C@H]1CC[C@H](O)CC1 [Example 48, trans-4-(4-{3-[(1S)-1-(2-Chloro-3-fluoro-6-methoxyphenyl)ethyl]-1H-pyrrolo[2,3-b]pyridin-5-yl}-5-ethyl-1H-pyrazol-1-yl)cyclohexanol] | > 1000 | 50 to 200
COc1ccc(F)c(Cl)c1[C@@H](C)c1c[nH]c2ncc(-c3cnn([C@H]4CC[C@H](O)CC4)c3Cl)cc12 [Example 49, trans-4-(5-Chloro-4-{3-[(1S)-1-(2-chloro-3-fluoro-6-methoxyphenyl)ethyl]-1H-pyrrolo[2,3-b]pyridin-5-yl}-1H-pyrazol-1-yl)cyclohexanol] | > 1000 | 50 to 200
COc1ccc(F)c(Cl)c1[C@@H](C)c1c[nH]c2ncc(-c3cn(C)nc3CN)cc12 [Example 50, 1-(4-{3-[(1S)-1-(2-Chloro-3-fluoro-6-methoxyphenyl)ethyl]-1H-pyrrolo[2,3-b]pyridin-5-yl}-1-methyl-1H-pyrazol-3-yl)methanamine] | > 1000 | 200 to 1000
COc1ccc(F)c(Cl)c1[C@@H](C)c1c[nH]c2ncc(-c3c(CO)nn(C)c3C)cc12 [Example 51, (4-{3-[(1S)-1-(2-Chloro-3-fluoro-6-methoxyphenyl)ethyl]-1H-pyrrolo[2,3-b]pyridin-5-yl}-1,5-dimethyl-1H-pyrazol-3-yl)methanol] | > 1000 | 50 to 200
COc1ccc(F)c(Cl)c1[C@@H](C)c1c[nH]c2ncc(-c3cnn([C@H]4CC[C@@H](O)CC4)c3C)cc12 [Example 52, cis-4-(4-{3-[(1S)-1-(2-Chloro-3-fluoro-6-methoxyphenyl)ethyl]-1H-pyrrolo[2,3-b]pyridin-5-yl}-5-methyl-1H-pyrazol-1-yl)cyclohexanol] | 200 to 1000 | 50 to 200
COc1ccc(F)c(Cl)c1[C@@H](C)c1c[nH]c2ncc(-c3cnn([C@H]4CC[C@H](N(C)C)CC4)c3C)cc12 [Example 53, trans-4-(4-{3-[(1S)-1-(2-Chloro-3-fluoro-6-methoxyphenyl)ethyl]-1H-pyrrolo[2,3-b]pyridin-5-yl}-5-methyl-1H-pyrazol-1-yl)-N,N-dimethylcyclohexanamine] | 200 to 1000 | ≤ 50
COc1ccc(F)c(Cl)c1[C@@H](C)c1c[nH]c2ncc(-c3cnn([C@H]4CC[C@@H](N(C)C)CC4)c3C)cc12 [Example 54, cis-4-(4-{3-[(1S)-1-(2-Chloro-3-fluoro-6-methoxyphenyl)ethyl]-1H-pyrrolo[2,3-b]pyridin-5-yl}-5-methyl-1H-pyrazol-1-yl)-N,N-dimethylcyclohexanamine] | 200 to 1000 | ≤ 50
COc1ccc(F)c(Cl)c1[C@@H](C)c1c[nH]c2ncc(-c3cn(C)nc3Cl)cc12 [Example 60, 3-[(1S)-1-(2-chloro-3-fluoro-6-methoxyphenyl)ethyl]-5-(3-chloro-1-methyl-1H-pyrazol-4-yl)-1H-pyrrolo[2,3-b]pyridine] | > 1000 | 50 to 200
COc1ccc(F)c(Cl)c1[C@@H](C)c1c[nH]c2ncc(-c3cn(C)nc3OC)cc12 [Example 61, 3-[(1S)-1-(2-Chloro-3-fluoro-6-methoxyphenyl)ethyl]-5-(3-methoxy-1-methyl-1H-pyrazol-4-yl)-1H-pyrrolo[2,3-b]pyridine] | 200 to 1000 | 200 to 1000
COc1ccc(F)c(Cl)c1[C@@H](C)c1c[nH]c2ncc(-c3cnn(C)c3OC)cc12 [Example 62, 3-[(1S)-1-(2-chloro-3-fluoro-6-methoxyphenyl)ethyl]-5-(5-methoxy-1-methyl-1H-pyrazol-4-yl)-1H-pyrrolo[2,3-b]pyridine] | > 1000 | 200 to 1000
COc1ccc(F)c(Cl)c1[C@@H](C)c1c[nH]c2ncc(-c3c(C)nn(C)c3Cl)cc12 [Example 63, 5-(5-Chloro-1,3-dimethyl-1H-pyrazol-4-yl)-3-[(1S)-1-(2-chloro-3-fluoro-6-methoxyphenyl)ethyl]-1H-pyrrolo[2,3-b]pyridine] | > 1000 | 200 to 1000
COc1ccc(F)c(Cl)c1[C@@H](C)c1c[nH]c2ncc(-c3cncn3C)cc12 [Example 64, 3-[(1S)-1-(2-Chloro-3-fluoro-6-methoxyphenyl)ethyl]-5-(1-methyl-1H-imidazol-5-yl)-1H-pyrrolo[2,3-b]pyridine] | > 1000 | 200 to 1000
COc1ccc(F)c(Cl)c1[C@@H](C)c1c[nH]c2ncc(-c3cnc(C)n3C)cc12 [Example 65, 3-[(1S)-1-(2-chloro-3-fluoro-6-methoxyphenyl)ethyl]-5-(1,2-dimethyl-1H-imidazol-5-yl)-1H-pyrrolo[2,3-b]pyridine] | > 1000 | 200 to 1000
